Laboratory results published in patent publication US5420276A, “Analogs of oxetanyl purines and pyrimidines” (Abbott Laboratories, priority 1993, dated 1995).
Converted amounts (≈) assume the structure as drawn. Like-named read-outs stand apart in the source and are kept apart here. Values belong to the molecule of their own block, whether it stands above or below them.

Tests used:
[1] = system: Herpes simplex type 2 (HSV-2) strain MS; assay: CPE-inhibition assay, herpes simplex type 2 strain MS in Vero cells; assay type: cell-based, herpes simplex virus type 2; conditions: for VR (Virus Rating): HSV-2 (MS)
Protocol: The challenge viruses were propagated and assayed in cells that were pregrown as monolayer cultures in plastic tissue culture flasks and 96-well plates, using cell culture media appropriate for the host cell cultures. The following viruses and host cell cultures were employed:
green monkey kidney (Vero)
On the day of use, a weighed sample of each compound to be evaluated was dissolved and diluted in serial 10^0.5 dilutions in the culture medium appropriate for each virus-host cell system.
Mammalian cells were pregrown as monolayers in wells of COSTAR 96-well tissue culture plates using suitable cell culture media. Stock viruses were pretitered according to the method of Reed and Muench (Amer. J. Hyg. 27:493-497, 1938) and diluted in cell culture medium to yield 32 CCID50 (cell culture infectious dose, 50%) units per 0.1 ml. Antiviral assays were designed to test seven concentrations of each compound, from cytotoxic to noncytotoxic levels, in triplicate against each of the challenge viruses in microtiter plate wells containing suitable cell monolayers. To each of the replicate cell cultures were added 0.1 ml of the test drug solution and 0.1 ml of virus suspension. Cell controls containing medium alone, virus controls containing medium and virus, and drug cytotoxicity controls containing medium and each drug concentration were run simultaneously with the test samples assayed in each experiment. […] The cell monolayers were examined microscopically for virus-induced CPE and for drug cytotoxicity.
Antiviral activity was determined by calculating the degree of inhibition of virus-induced CPE in drug-treated, virus-infected cell cultures by means of a virus rating (VR). The VR is a standard weighted measurement of antiviral activity taking into account both the degree of CPE inhibition and drug cytotoxicity, and is determined by a modification of the method of Ehrlich et al. (Ann. N.Y. Acad. Sci. 130: 5-16, 1965) as described below. CPE was graded for each individual culture in each microtiter plate well according to the following scale:
4=100% of the cells affected by virus;
3=75% of the cells affected by virus;
2=50% of the cells affected by virus;
1=25% of the cells affected by virus;
0=No CPE; normal cell monolayer.
The VR was calculated as 0.1 of the sum of the numerical differences between the recorded CPE grade of each test well and that of the corresponding virus control in the culture plate. Numerical differences between the scores of test wells containing a drug concentration which was partially cytotoxic (p) and their corresponding virus controls were halved.
The minimum inhibitory drug concentration which reduced the cytopathogenic effect (CPE) by 50% (MIC50) was calculated by using a regression analysis program for semilog curve fitting. A therapeutic index (TI) for each active compound for each susceptible virus was determined by dividing the minimum cytotoxic concentration of the test compound by the MIC50.

[2] = system: Human Cytomegalovirus (HCMV) strain AD169; assay: HCMV virus yield reduction assay; assay type: cell-based; conditions: Human betaherpesvirus 5, AD169, 144 h, MRC5 cells; for log reduction at 3.2 µg/mL: 3.2 μg/ml; for log reduction at 10 µg/mL: 10 μg/ml
Protocol: Human diploid embryonic lung (MRC5) cells were grown in 35 mm wells of 6-well tissue culture plates. Subconfluent cell monolayers were rinsed with phosphate-buffered saline (PBS) and were exposed to 0.5 ml/well of HCMV (strain AD169) suspension for 1.5 hours at 37° C. The virus suspension was diluted in MEM+2% fetal bovine serum (FBS) to yield a multipicity of infection (MOI) of approximately 0.1 plaque forming units (PFU)/cell. Following the virus adsorption period, the inocula were removed and infected cell layers were rinsed with PBS. Aliquiots (2.0 ml) of each test drug concentration (dissolved in MEM supplemented with 2% FBS) were dispensed into triplicate cell cultures: two virus-infected cultures and one uninfected cytotoxicity control culture (exposed to medium without virus for 1.5 hours). Untreated virus-infected control cultures and untreated, uninfected cell control cultures were fed with medium alone. The culture plates were incubated at 37° C. in a humidified atmosphere of 2% CO2 in air. All cell culture fluids were replaced with fresh drug and medium 48 hours postinfection (p.i.). On Day 6 p.i., the cell layers were examined microscopically for cytopathogenic effect (CPE) and drug cytotoxicity. The test and virus control cultures were then harvested by subjecting the cell layers to one cycle of freeze-thawing. The cellular material was scraped into the ambient medium and the contents from replicate cultures were pooled, dispensed into cryotubes and stored at -135° C. The harvested test and virus control samples were thawed and the infectious virus yield was determined by plaque assay in MRC5 cells grown in 12-well cluster plates. Inhibition of HCMV replication by each test compound was determined by comparing the progeny virus yields in the drug-treated cultures with the progeny virus yield in the untreated, virus-infected control cultures.

[3] = MTT drug cytotoxicity assay in MRC5 cells; assay type: cell-based; conditions: human, read-out: MTT assay Percent of control
Protocol: Human diploid embryonic lung (MRC5) cells were grown in 35 mm wells of 6-well tissue culture plates. Subconfluent cell monolayers were rinsed with phosphate-buffered saline (PBS) and were exposed to 0.5 ml/well of HCMV (strain AD169) suspension for 1.5 hours at 37° C. The virus suspension was diluted in MEM+2% fetal bovine serum (FBS) to yield a multipicity of infection (MOI) of approximately 0.1 plaque forming units (PFU)/cell. Following the virus adsorption period, the inocula were removed and infected cell layers were rinsed with PBS. Aliquiots (2.0 ml) of each test drug concentration (dissolved in MEM supplemented with 2% FBS) were dispensed into triplicate cell cultures: two virus-infected cultures and one uninfected cytotoxicity control culture (exposed to medium without virus for 1.5 hours). Untreated virus-infected control cultures and untreated, uninfected cell control cultures were fed with medium alone. The culture plates were incubated at 37° C. in a humidified atmosphere of 2% CO2 in air.
All cell culture fluids were replaced with fresh drug and medium 48 hours postinfection (p.i.).
Drug cytotoxicity was determined quantitatively by a method based on the reduction of the tetrazolium salt, 3-(4,5-dimethyl-thiazol-2-yl)-2,5-diphenyl tetrazolium bromide (MTT) by mitochondrial enzymes of viable host cells to MTT formazan (T. Mosmann, 1983). Drug cytotoxicity controls and cell controls were treated with MTT (dissolved in culture medium) followed by 20% SDS (in 0.02N HCl) to dissolve the crystals of MTT formazan. The blue color of the MTT formazan was measured spectrophotometrically at 570 nm. Drug cytotoxicity was determined by comparing the absorbance (O.D.) of each drug cytotoxicity control with the mean O.D. of the cell control cultures and expressed as percent of control.

IC50 ([1]; Human alphaherpesvirus 2, HSV-2 (MS), minimum drug concentration that inhibited the CPE by 50%, read-out: ID50 (the source's name)): 1 µg/mL (≈ 4.4 µM)
SMILES: Nc1ccn([C@@H]2O[C@H](CO)[C@H]2CO)c(=O)n1 [Example 22, 1-([2'R,3'R,4'S]-3',4'-Bis(hydroxymethyl)-2'-oxetanyl)cytosine]
VR (Virus Rating) [1]: 1.95 | log reduction at 0.032 µg/mL ([2]; 0.032 μg/ml): 0.8 | log reduction at 0.1 µg/mL ([2]; 0.1 μg/ml): 1.4 | log reduction at 0.32 µg/mL ([2]; 0.32 μg/ml): 1.9 | log reduction at 1 µg/mL ([2]; 1.0 μg/ml): 4.1 | log reduction at 3.2 µg/mL [2]: > 4.4 | log reduction at 10 µg/mL [2]: > 4.4 | viability ([3]; 0.32 μg/ml): 84% | viability ([3]; 1.0 μg/ml): 81% | viability ([3]; 3.2 μg/ml): 77% | viability ([3]; 10 μg/ml): 78%

SMILES: O=c1ccn([C@@H]2O[C@H](CO)[C@H]2CO)c(=O)[nH]1 [Example 23, 1-([2'R,3'R,4'S]-3',4'-Bis(hydroxymethyl)-2'-oxetanyl)uracil]
VR (Virus Rating) [1]: 0.5 | log reduction at 3.2 µg/mL [2]: 0.2 | log reduction at 10 µg/mL [2]: 0.4 | log reduction at 32 µg/mL ([2]; 32 μg/ml): 0.5 | log reduction at 100 µg/mL ([2]; 100 μg/ml): 0.9 | log reduction at 320 µg/mL ([2]; 320 μg/ml): 1.9 | viability ([3]; 10 μg/ml): 100% | viability ([3]; 32 μg/ml): 100% | viability ([3]; 100 μg/ml): 98% | viability ([3]; 320 μg/ml): 100%
